Consider one compound from paper PMC5621377 (Clinical cancer research : an official journal of the …, 2016).

In series [1] the test system is patients with Rb+ advanced solid tumors or lymphomas. Kind of series: Phase I dose escalation: DLT and MTD/RDE determination. The class given is in vivo.
The subject of series [2] is neuroblastoma cell lines. The following applies: in vitro, dose-dependent; cited from earlier work.

For `CN(C)C(=O)c1cc2cnc(Nc3ccc(N4CCNCC4)cn3)nc2n1C1CCCC1` [ribociclib], the “maximum tolerated dose (MTD)” value in series [1] (3-weeks-on/1-week-off schedule) is reported as 900 mg/day. The “recommended dose for expansion (RDE)” value in series [1] (human, in vivo, 28 days) stood at 600 mg/day. For the same compound, in series [1] (in vivo), the “number of dose-limiting toxicities during Cycle 1” value was “Nine”. Besides, in series [2], the “concentration with marked accumulation of cells in G0/G1 phase” value is given as “above 100 nmol/L”.
